{
  "source": "ChEMBL document CHEMBL5303573",
  "about": "“Mapping human microbiome drug metabolism by gut bacteria and their genes” (Nature, 2019)",
  "format_in_all_cases": "ADME",
  "parameters_in_all_cases": "dose 2 uM",
  "settings_in_all_cases": "2 µM",
  "key": {"[1]": {"target": "T1, 3-oxo-5-alpha-steroid 4-dehydrogenase (Bacteroides thetaiotaomicron, UniProt Q8A618)", "T1 sequence (Q8A618 whole entry)": "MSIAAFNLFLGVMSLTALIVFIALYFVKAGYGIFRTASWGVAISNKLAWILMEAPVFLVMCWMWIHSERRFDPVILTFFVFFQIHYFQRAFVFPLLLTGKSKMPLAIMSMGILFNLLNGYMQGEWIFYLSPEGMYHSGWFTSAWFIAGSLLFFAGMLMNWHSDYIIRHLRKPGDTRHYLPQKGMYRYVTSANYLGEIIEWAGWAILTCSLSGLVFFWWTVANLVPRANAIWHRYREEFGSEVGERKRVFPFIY", "test": "(§1) The drug is tested on Bacteroides thetaiotaomicron strain: VPI-5482 for biotransformation. The drug concentrations were measured before and after a 12-h incubation by liquid-chromatography-coupled mass spectrometry (LC–MS)"}, "[2]": {"target": "T2, Sialic acid-specific acetylesterase (Bacteroides thetaiotaomicron, UniProt Q8A331)", "T2 sequence (Q8A331 whole entry)": "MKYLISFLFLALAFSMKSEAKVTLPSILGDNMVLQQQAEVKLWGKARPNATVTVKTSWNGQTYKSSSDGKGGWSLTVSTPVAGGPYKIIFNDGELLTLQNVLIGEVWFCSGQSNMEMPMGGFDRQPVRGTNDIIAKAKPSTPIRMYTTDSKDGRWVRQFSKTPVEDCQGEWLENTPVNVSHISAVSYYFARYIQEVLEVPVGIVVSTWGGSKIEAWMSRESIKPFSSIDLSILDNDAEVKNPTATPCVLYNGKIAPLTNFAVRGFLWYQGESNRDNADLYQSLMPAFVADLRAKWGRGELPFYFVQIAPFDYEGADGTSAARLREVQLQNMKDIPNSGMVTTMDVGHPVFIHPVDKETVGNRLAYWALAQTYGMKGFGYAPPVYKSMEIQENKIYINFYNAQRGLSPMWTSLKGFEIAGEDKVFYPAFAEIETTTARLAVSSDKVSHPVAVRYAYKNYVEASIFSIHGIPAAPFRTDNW", "test": "as §1"}, "[3]": {"target": "T3, Nitroreductase-like protein (Bacteroides thetaiotaomicron, UniProt Q8AB93)", "T3 sequence (Q8AB93 whole entry)": "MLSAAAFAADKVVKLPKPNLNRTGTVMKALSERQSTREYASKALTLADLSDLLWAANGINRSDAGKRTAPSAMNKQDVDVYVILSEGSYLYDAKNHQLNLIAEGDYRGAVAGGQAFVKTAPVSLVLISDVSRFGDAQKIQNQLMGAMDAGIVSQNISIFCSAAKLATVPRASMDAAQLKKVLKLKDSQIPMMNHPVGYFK", "test": "as §1"}, "[4]": {"target": "T4, Acyltransferase (Bacteroides thetaiotaomicron, UniProt Q8A575)", "T4 sequence (Q8A575 whole entry)": "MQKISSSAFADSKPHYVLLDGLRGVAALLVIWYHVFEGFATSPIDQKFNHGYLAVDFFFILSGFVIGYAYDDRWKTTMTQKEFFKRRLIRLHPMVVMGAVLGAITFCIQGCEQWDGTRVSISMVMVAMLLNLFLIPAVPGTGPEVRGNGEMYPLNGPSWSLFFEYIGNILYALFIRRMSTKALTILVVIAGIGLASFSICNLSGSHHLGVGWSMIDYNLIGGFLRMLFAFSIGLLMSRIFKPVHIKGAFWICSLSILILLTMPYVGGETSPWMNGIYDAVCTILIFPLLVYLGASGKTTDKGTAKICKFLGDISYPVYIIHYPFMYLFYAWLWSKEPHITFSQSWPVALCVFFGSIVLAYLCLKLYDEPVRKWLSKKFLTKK", "test": "as §1"}, "[5]": {"target": "T5, Lipolytic enzyme, G-D-S-L family (Bacteroides thetaiotaomicron, UniProt Q8A0E6)", "T5 sequence (Q8A0E6 whole entry)": "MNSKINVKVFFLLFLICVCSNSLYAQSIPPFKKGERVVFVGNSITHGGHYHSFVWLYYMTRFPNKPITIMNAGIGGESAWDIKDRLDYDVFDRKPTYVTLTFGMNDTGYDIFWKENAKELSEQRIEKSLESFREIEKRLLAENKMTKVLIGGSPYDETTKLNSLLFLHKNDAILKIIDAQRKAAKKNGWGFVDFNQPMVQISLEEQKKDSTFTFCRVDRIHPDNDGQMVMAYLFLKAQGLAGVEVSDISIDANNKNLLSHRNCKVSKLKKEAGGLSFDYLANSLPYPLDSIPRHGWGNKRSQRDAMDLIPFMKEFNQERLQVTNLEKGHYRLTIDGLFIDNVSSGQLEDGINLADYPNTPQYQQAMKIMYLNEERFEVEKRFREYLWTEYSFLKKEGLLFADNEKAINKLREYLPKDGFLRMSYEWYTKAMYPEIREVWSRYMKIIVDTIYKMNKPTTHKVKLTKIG", "test": "as §1"}, "[6]": {"target": "T6, Lipoprotein (Bacteroides thetaiotaomicron, UniProt Q8A343)", "T6 sequence (Q8A343 whole entry)": "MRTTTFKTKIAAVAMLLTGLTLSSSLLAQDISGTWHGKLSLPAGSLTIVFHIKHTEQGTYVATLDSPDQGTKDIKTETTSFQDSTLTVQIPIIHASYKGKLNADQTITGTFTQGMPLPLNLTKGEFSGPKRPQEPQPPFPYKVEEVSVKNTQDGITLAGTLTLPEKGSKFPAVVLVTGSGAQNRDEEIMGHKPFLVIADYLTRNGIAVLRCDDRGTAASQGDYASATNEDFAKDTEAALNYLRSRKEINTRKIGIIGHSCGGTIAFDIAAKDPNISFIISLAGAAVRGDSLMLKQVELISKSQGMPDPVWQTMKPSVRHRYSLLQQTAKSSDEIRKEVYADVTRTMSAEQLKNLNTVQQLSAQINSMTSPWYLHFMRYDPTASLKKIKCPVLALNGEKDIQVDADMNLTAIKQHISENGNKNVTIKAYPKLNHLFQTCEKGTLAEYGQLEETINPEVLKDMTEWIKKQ", "test": "as §1"}, "[7]": {"target": "T7, NADH dehydrogenase/NAD(P)H nitroreductase (Bacteroides thetaiotaomicron, UniProt Q8A8L9)", "T7 sequence (Q8A8L9 whole entry)": "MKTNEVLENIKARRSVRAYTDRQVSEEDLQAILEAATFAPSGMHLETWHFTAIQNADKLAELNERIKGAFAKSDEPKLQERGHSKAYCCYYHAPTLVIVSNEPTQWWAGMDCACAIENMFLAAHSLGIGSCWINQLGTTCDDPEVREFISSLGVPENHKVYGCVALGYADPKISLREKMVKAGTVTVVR", "test": "as §1"}, "[8]": {"target": "T8, Lipase (Bacteroides thetaiotaomicron, UniProt Q8A3J3)", "T8 sequence (Q8A3J3 whole entry)": "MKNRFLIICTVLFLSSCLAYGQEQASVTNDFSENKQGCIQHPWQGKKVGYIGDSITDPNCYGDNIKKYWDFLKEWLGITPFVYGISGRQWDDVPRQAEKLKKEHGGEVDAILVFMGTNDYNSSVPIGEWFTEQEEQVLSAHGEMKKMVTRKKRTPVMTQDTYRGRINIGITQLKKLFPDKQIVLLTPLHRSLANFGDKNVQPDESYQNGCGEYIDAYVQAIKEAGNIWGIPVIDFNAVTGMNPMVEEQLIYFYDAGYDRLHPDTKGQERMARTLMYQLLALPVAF", "test": "as §1"}},
  "data": [
    {"smiles": "C[C@]12CCC(=O)C=C1[C@@H]1C[C@@H]1[C@H]1[C@@H]3[C@@H]4C[C@@H]4[C@@]4(CCC(=O)O4)[C@@]3(C)CC[C@@H]12", "note": "[DROSPIRENONE]", "values": [
      {"measurement": "Bacterial Biotransformation", "setting": "[1]", "value": "Compound NOT metabolized"},
      {"measurement": "Bacterial Biotransformation", "setting": "[2]", "value": "Compound NOT metabolized"},
      {"measurement": "Bacterial Biotransformation", "setting": "[3]", "value": "Compound NOT metabolized"},
      {"measurement": "Bacterial Biotransformation", "setting": "[4]", "value": "Compound NOT metabolized"},
      {"measurement": "Bacterial Biotransformation", "setting": "[5]", "value": "Compound NOT metabolized"},
      {"measurement": "Bacterial Biotransformation", "setting": "[6]", "value": "Compound NOT metabolized"},
      {"measurement": "Bacterial Biotransformation", "setting": "[7]", "value": "Compound NOT metabolized"},
      {"measurement": "Bacterial Biotransformation", "setting": "[8]", "value": "Compound NOT metabolized"}
    ]},
    {"smiles": "N#Cc1ccc2c(c1)N(CCCN1CCC(O)CC1)c1ccccc1S2", "note": "[PERICIAZINE]", "values": [
      {"measurement": "Bacterial Biotransformation", "setting": "[1]", "value": "Compound NOT metabolized"},
      {"measurement": "Bacterial Biotransformation", "setting": "[2]", "value": "Compound NOT metabolized"},
      {"measurement": "Bacterial Biotransformation", "setting": "[3]", "value": "Compound NOT metabolized"},
      {"measurement": "Bacterial Biotransformation", "setting": "[4]", "value": "Compound metabolized"},
      {"measurement": "Bacterial Biotransformation", "setting": "[5]", "value": "Compound NOT metabolized"},
      {"measurement": "Bacterial Biotransformation", "setting": "[6]", "value": "Compound NOT metabolized"},
      {"measurement": "Bacterial Biotransformation", "setting": "[7]", "value": "Compound NOT metabolized"},
      {"measurement": "Bacterial Biotransformation", "setting": "[8]", "value": "Compound NOT metabolized"}
    ]}
  ]
}
